Measured values published in ChEMBL document CHEMBL4145628, “Strategy for Extending Half-life in Drug Design and Its Significance” (ACS Med Chem Lett, 2018).

Assays:
[1] = Effective half life in rat; type: ADME, organism-based; conditions: in vivo, read-out: t1/2eff (converted)
[2] = Plasma clearance in rat; type: ADME, organism-based
[3] = Fraction unbound in rat plasma; type: ADME, cell-free
[4] = Bioavailability in rat; type: ADME, organism-based; conditions: in vivo

half-life [1] [min] | clearance [2] [mL/min/kg] | fraction unbound [3] | bioavailability [4] [%] | SMILES
34.2 | 64 | 0.017 | 25 | CC(C)Oc1ccc2[nH]nc(-c3cc(N4C[C@@H](C)O[C@@H](C)C4)ncn3)c2c1
56.4 | 65 | 0.008 | 20 | CC(C)Oc1cc2c(-c3cc(N4C[C@@H](C)O[C@@H](C)C4)ncn3)n[nH]c2cc1F
31.2 | 69 | 0.019 | 32 | C[C@H]1CN(c2cc(-c3n[nH]c4ccc(OC5(C)CC5)cc34)ncn2)CCO1
29.4 | 78 | 0.051 | 36 | CC1(Oc2ccc3[nH]nc(-c4cc(N5CCO[C@@H](CO)C5)ncn4)c3c2)CC1
